Test results as given in paper PMC12446476 (Nature Communications, 2025).
“And” between values parts separate entries of the source, which are not always exact repeats. Equal entries are not always repeated.

Test system: N. gonorrhoeae
Assay: N. gonorrhoeae murine vaginal infection model, efficacy
Assay type: in vivo, mouse
Details: vaginal lavage, individual mice, BID
Method: The N. gonorrhoeae female mouse vaginal model[45] was performed in accordance with the Guide for Care and Use of Laboratory Animals[75]. Animal rooms were maintained at a temperature range of 20–24 °C and humidity between 30% and 70%, with 12 h light/dark cycles. Ovariectomized BALB/c female mice (5–6 weeks, BioLASCO Taiwan Co., Ltd.) were treated with estradiol (0.23 mg/mouse) two days before infection and on the day of infection. Ovariectomized mice were used to avoid staging mice before treating them with estradiol. Beginning two days prior to infection and maintained until the end of the study, animals were treated twice daily with streptomycin (1.2 mg/mouse) and vancomycin (0.6 mg/mouse) each via intraperitoneal (IP) injection and received trimethoprim sulfate in the drinking water (0.4 mg/mL) to control vaginal microflora. Animals were anesthetised with pentobarbital (80 mg/kg), the vagina was rinsed with 50 mM HEPES (pH 7.4), and then inoculated with N. gonorrhoeae in pre-warmed PBS (0.02 mL/mouse containing ~1 × 10^5 CFU).
Control groups received either a single IP injection of ceftriaxone or 5% dextrose (vehicle) twice daily. Animals were sacrificed via CO2 asphyxiation at either 2 h (baseline), 26 and/or 50 h post-infection. Vaginal lavage was performed twice with 200 µL GC broth containing 0.05% saponin to recover bacteria. Bacterial burden in the lavage fluids was determined by performing 10-fold serial dilutions and plating on chocolate agar plates. Four strains were assessed using the model; ATCC 700825 is naturally streptomycin-resistant, whereas AR Bank0179-15, AR Bank0181-17 and WHO X-07 are derivatives of AR Bank0179, AR Bank0181 and WHO X, respectively, that were engineered for streptomycin resistance for use in the model.

[1] = N. gonorrhoeae AR Bank0179-15, Debio 1453P 20 mg/kg PO, 48h
[2] = N. gonorrhoeae AR Bank0179-15, Debio 1453P 30 mg/kg PO, 24h
[3] = N. gonorrhoeae AR Bank0179-15, Debio 1453P 30 mg/kg PO, 48h
[4] = N. gonorrhoeae AR Bank0179-15, Debio 1453P 40 mg/kg PO, 24h
[5] = N. gonorrhoeae AR Bank0179-15, Debio 1453P 40 mg/kg PO, 48h
[6] = N. gonorrhoeae AR Bank0179-15, Debio 1453P 80 mg/kg PO, 24h
[7] = N. gonorrhoeae AR Bank0179-15, Debio 1453P 80 mg/kg PO, 48h
[8] = N. gonorrhoeae AR Bank0181-17, Debio 1453P 20 mg/kg PO, 24h
[9] = N. gonorrhoeae AR Bank0181-17, Debio 1453P 30 mg/kg PO, 24h
[10] = N. gonorrhoeae AR Bank0181-17, Debio 1453P 40 mg/kg PO, 24h
[11] = N. gonorrhoeae AR Bank0181-17, Debio 1453P 80 mg/kg PO, 24h
[12] = N. gonorrhoeae ATCC 700825, Debio 1453P 10 mg/kg PO, 24h
[13] = N. gonorrhoeae ATCC 700825, Debio 1453P 20 mg/kg PO, 24h

Q: How did the CFU/mL lavage fluid [1] turn out when Cc1c(CN(C)C(=O)/C=C/c2cnc3c(c2)N[C@H](C)[C@H](OP(=O)([O-])[O-])C(=O)N3)oc2ccccc12.[Na+].[Na+] [Debio 1453 P] was run?
A: <5 CFU/mL and 21100 CFU/mL and 105 CFU/mL and 6100 CFU/mL

Q: What about the “Log10(CFU/mL lavage fluid)” value [1] of the same compound?
A: <0.70 Log10(CFU/mL lavage fluid) and 4.32 Log10(CFU/mL lavage fluid) and 2.02 Log10(CFU/mL lavage fluid) and 3.79 Log10(CFU/mL lavage fluid)

Q: What about the CFU/mL lavage fluid [2] of the same compound?
A: <5 CFU/mL and 545 CFU/mL and 85 CFU/mL and 5500 CFU/mL and 125 CFU/mL

Q: What about the “Log10(CFU/mL lavage fluid)” value [2] of the same compound?
A: <0.70 Log10(CFU/mL lavage fluid) and 2.74 Log10(CFU/mL lavage fluid) and 1.93 Log10(CFU/mL lavage fluid) and 3.74 Log10(CFU/mL lavage fluid) and 2.1 Log10(CFU/mL lavage fluid)

Q: And the CFU/mL lavage fluid [3]?
A: <5 CFU/mL and 205 CFU/mL

Q: What about the “Log10(CFU/mL lavage fluid)” value [3] of the same compound?
A: <0.70 Log10(CFU/mL lavage fluid) and 2.31 Log10(CFU/mL lavage fluid)

Q: And the CFU/mL lavage fluid [4]?
A: 7600 CFU/mL and <5 CFU/mL and 200 CFU/mL and 115 CFU/mL

Q: What about the “Log10(CFU/mL lavage fluid)” value [4] of the same compound?
A: 3.88 Log10(CFU/mL lavage fluid) and <0.70 Log10(CFU/mL lavage fluid) and 2.3 Log10(CFU/mL lavage fluid) and 2.06 Log10(CFU/mL lavage fluid)

Q: And the CFU/mL lavage fluid [5]?
A: 65 CFU/mL and <5 CFU/mL

Q: And the “Log10(CFU/mL lavage fluid)” value [5]?
A: 1.81 Log10(CFU/mL lavage fluid) and <0.70 Log10(CFU/mL lavage fluid)

Q: What about the CFU/mL lavage fluid [6] of the same compound?
A: <5 CFU/mL

Q: What about the “Log10(CFU/mL lavage fluid)” value [6] of the same compound?
A: <0.70 Log10(CFU/mL lavage fluid)

Q: What about the CFU/mL lavage fluid [7] of the same compound?
A: <5 CFU/mL

Q: What about the “Log10(CFU/mL lavage fluid)” value [7] of the same compound?
A: <0.70 Log10(CFU/mL lavage fluid)

Q: And the CFU/mL lavage fluid [8]?
A: 1880000 CFU/mL and 790000 CFU/mL and 670000 CFU/mL and 810000 CFU/mL and 720000 CFU/mL

Q: What about the “Log10(CFU/mL lavage fluid)” value [8] of the same compound?
A: 6.27 Log10(CFU/mL lavage fluid) and 5.9 Log10(CFU/mL lavage fluid) and 5.83 Log10(CFU/mL lavage fluid) and 5.91 Log10(CFU/mL lavage fluid) and 5.86 Log10(CFU/mL lavage fluid)

Q: And the CFU/mL lavage fluid [9]?
A: 380000 CFU/mL and 1120000 CFU/mL and 11300 CFU/mL and 201000 CFU/mL and 620000 CFU/mL

Q: What about the “Log10(CFU/mL lavage fluid)” value [9] of the same compound?
A: 5.58 Log10(CFU/mL lavage fluid) and 6.05 Log10(CFU/mL lavage fluid) and 4.05 Log10(CFU/mL lavage fluid) and 5.3 Log10(CFU/mL lavage fluid) and 5.79 Log10(CFU/mL lavage fluid)

Q: And the CFU/mL lavage fluid [10]?
A: 11500 CFU/mL and 123000 CFU/mL and 200000 CFU/mL and 830000 CFU/mL and 730000 CFU/mL

Q: And the “Log10(CFU/mL lavage fluid)” value [10]?
A: 4.06 Log10(CFU/mL lavage fluid) and 5.09 Log10(CFU/mL lavage fluid) and 5.3 Log10(CFU/mL lavage fluid) and 5.92 Log10(CFU/mL lavage fluid) and 5.86 Log10(CFU/mL lavage fluid)

Q: What about the CFU/mL lavage fluid [11] of the same compound?
A: 275 CFU/mL

Q: And the “Log10(CFU/mL lavage fluid)” value [11]?
A: 2.44 Log10(CFU/mL lavage fluid)

Q: What about the CFU/mL lavage fluid [12] of the same compound?
A: 50000 CFU/mL and 21700 CFU/mL and 23000 CFU/mL and 15500 CFU/mL and 490000 CFU/mL

Q: And the “Log10(CFU/mL lavage fluid)” value [12]?
A: 4.7 Log10(CFU/mL lavage fluid) and 4.34 Log10(CFU/mL lavage fluid) and 4.36 Log10(CFU/mL lavage fluid) and 4.19 Log10(CFU/mL lavage fluid) and 5.69 Log10(CFU/mL lavage fluid)

Q: What about the CFU/mL lavage fluid [13] of the same compound?
A: 7500 CFU/mL and 5100 CFU/mL and 204000 CFU/mL and 15100 CFU/mL

Q: What about the “Log10(CFU/mL lavage fluid)” value [13] of the same compound?
A: 3.88 Log10(CFU/mL lavage fluid) and 3.71 Log10(CFU/mL lavage fluid) and 5.31 Log10(CFU/mL lavage fluid) and 4.18 Log10(CFU/mL lavage fluid)
